Experimental data taken from ChEMBL document CHEMBL1154458, “QSAR study on tetrahydroquinoline analogues as plasmodium protein farnesyltransferase inhibitors: a comparison of rationales of malarial and mammalian enzyme inhibitory activities for selectivity” (Eur J Med Chem, 2008).

tested on: not listed separately; assay: Inhibition of Plasmodium falciparum PFT

pIC50 | SMILES
9.05 | Cn1cnc(S(=O)(=O)N(CC(=O)OC(C)(C)C)C2Cc3cc(C#N)ccc3N(Cc3cncn3C)C2)c1 (stereo unspecified)
8.92 | Cn1cnc(S(=O)(=O)N(CC(=O)NC(C)(C)C)C2Cc3cc(C#N)ccc3N(Cc3cncn3C)C2)c1 (stereo unspecified)
8.82 | Cc1ccccc1CN(C1Cc2cc(C#N)ccc2N(Cc2cncn2C)C1)S(=O)(=O)c1cn(C)cn1 (stereo unspecified)
9.22 | C=C(C)CN(C1Cc2cc(C#N)ccc2N(Cc2cncn2C)C1)S(=O)(=O)c1cn(C)cn1 (stereo unspecified)
6.78 | Cn1cncc1CN1CC(N(Cc2ccc3ccccc3c2Br)S(=O)(=O)c2ccccn2)Cc2cc(C#N)ccc21 (stereo unspecified)
9.1 | Cc1onc(-c2ccccc2)c1CN(C1Cc2cc(C#N)ccc2N(Cc2cncn2C)C1)S(=O)(=O)c1ccccn1 (stereo unspecified)
9.4 | C=C(Br)CN(C1Cc2cc(C#N)ccc2N(Cc2cncn2C)C1)S(=O)(=O)c1cn(C)cn1 (stereo unspecified)
7.6 | Cn1cncc1CN1CC(N(CC(=O)NC(C)(C)C)S(=O)(=O)c2cccnc2)Cc2cc(C#N)ccc21 (stereo unspecified)
8.96 | Cn1cnc(S(=O)(=O)N(CC2CCN(C(=O)OC(C)(C)C)CC2)C2Cc3cc(C#N)ccc3N(Cc3cncn3C)C2)c1 (stereo unspecified)
7.55 | Cn1cnc(S(=O)(=O)N(Cc2ccc3ccccc3c2Br)C2Cc3cc(C#N)ccc3N(Cc3cncn3C)C2)c1 (stereo unspecified)
7.26 | Cn1cncc1CN1CC(N(Cc2cc3nsnc3cc2Cl)S(=O)(=O)c2ccccn2)Cc2cc(C#N)ccc21 (stereo unspecified)
8.55 | Cn1cncc1CN1CC(N(Cc2ccccn2)S(=O)(=O)c2ccccn2)Cc2cc(C#N)ccc21 (stereo unspecified)
8.85 | Cn1cncc1CN1CC(N(CC(=O)NC(C)(C)C)S(=O)(=O)c2ccccn2)Cc2cc(C#N)ccc21 (stereo unspecified)
8.1 | Cn1cncc1CN1CC(N(CC(=O)NC(C)(C)C)S(=O)(=O)c2nccn2C)Cc2cc(C#N)ccc21 (stereo unspecified)
6 | Cn1cncc1CN1CC(N(CC(=O)NC(C)(C)C)S(=O)(=O)c2ccncc2)Cc2cc(C#N)ccc21 (stereo unspecified)
9.22 | Cn1cnc(S(=O)(=O)N(Cc2ccccc2)C2Cc3cc(C#N)ccc3N(Cc3cncn3C)C2)c1 (stereo unspecified)
7.38 | Cn1cncc1CN1CC(N(CC(=O)NC(C)(C)C)S(=O)(=O)c2ccc(F)cc2)Cc2cc(C#N)ccc21 (stereo unspecified)

tested on: Plasmodium falciparum; assay: Antiplasmodial activity against Plasmodium falciparum 3D7; type: functional, organism-based

IC50 | SMILES
5.01 nM | Cn1cnc(S(=O)(=O)N(CC(=O)OC(C)(C)C)C2Cc3cc(C#N)ccc3N(Cc3cncn3C)C2)c1 (stereo unspecified)
5.01 nM | Cn1cnc(S(=O)(=O)N(CC(=O)NC(C)(C)C)C2Cc3cc(C#N)ccc3N(Cc3cncn3C)C2)c1 (stereo unspecified)
55 nM | Cc1ccccc1CN(C1Cc2cc(C#N)ccc2N(Cc2cncn2C)C1)S(=O)(=O)c1cn(C)cn1 (stereo unspecified)
6.92 nM | C=C(C)CN(C1Cc2cc(C#N)ccc2N(Cc2cncn2C)C1)S(=O)(=O)c1cn(C)cn1 (stereo unspecified)
2750 nM | Cn1cncc1CN1CC(N(Cc2ccc3ccccc3c2Br)S(=O)(=O)c2ccccn2)Cc2cc(C#N)ccc21 (stereo unspecified)
112 nM | Cc1onc(-c2ccccc2)c1CN(C1Cc2cc(C#N)ccc2N(Cc2cncn2C)C1)S(=O)(=O)c1ccccn1 (stereo unspecified)
6.03 nM | C=C(Br)CN(C1Cc2cc(C#N)ccc2N(Cc2cncn2C)C1)S(=O)(=O)c1cn(C)cn1 (stereo unspecified)
2690 nM | Cn1cncc1CN1CC(N(CC(=O)NC(C)(C)C)S(=O)(=O)c2cccnc2)Cc2cc(C#N)ccc21 (stereo unspecified)
100 nM | Cn1cnc(S(=O)(=O)N(CC2CCN(C(=O)OC(C)(C)C)CC2)C2Cc3cc(C#N)ccc3N(Cc3cncn3C)C2)c1 (stereo unspecified)
3020 nM | Cn1cnc(S(=O)(=O)N(Cc2ccc3ccccc3c2Br)C2Cc3cc(C#N)ccc3N(Cc3cncn3C)C2)c1 (stereo unspecified)
3020 nM | Cn1cncc1CN1CC(N(Cc2cc3nsnc3cc2Cl)S(=O)(=O)c2ccccn2)Cc2cc(C#N)ccc21 (stereo unspecified)
51.3 nM | Cn1cncc1CN1CC(N(Cc2ccccn2)S(=O)(=O)c2ccccn2)Cc2cc(C#N)ccc21 (stereo unspecified)
85.1 nM | Cn1cncc1CN1CC(N(CC(=O)NC(C)(C)C)S(=O)(=O)c2ccccn2)Cc2cc(C#N)ccc21 (stereo unspecified)
> 5010 nM | Cn1cncc1CN1CC(N(CC(=O)NC(C)(C)C)S(=O)(=O)c2nccn2C)Cc2cc(C#N)ccc21 (stereo unspecified)
> 5010 nM | Cn1cncc1CN1CC(N(CC(=O)NC(C)(C)C)S(=O)(=O)c2ccncc2)Cc2cc(C#N)ccc21 (stereo unspecified)
5.01 nM | Cn1cnc(S(=O)(=O)N(Cc2ccccc2)C2Cc3cc(C#N)ccc3N(Cc3cncn3C)C2)c1 (stereo unspecified)
> 5010 nM | Cn1cncc1CN1CC(N(CC(=O)NC(C)(C)C)S(=O)(=O)c2ccc(F)cc2)Cc2cc(C#N)ccc21 (stereo unspecified)

tested on: not listed separately; assay: Inhibition of rat PFT

pIC50 | SMILES
8.92 | Cn1cnc(S(=O)(=O)N(CC(=O)OC(C)(C)C)C2Cc3cc(C#N)ccc3N(Cc3cncn3C)C2)c1 (stereo unspecified)
8.82 | Cn1cnc(S(=O)(=O)N(CC(=O)NC(C)(C)C)C2Cc3cc(C#N)ccc3N(Cc3cncn3C)C2)c1 (stereo unspecified)
8.47 | Cc1ccccc1CN(C1Cc2cc(C#N)ccc2N(Cc2cncn2C)C1)S(=O)(=O)c1cn(C)cn1 (stereo unspecified)
9.16 | C=C(C)CN(C1Cc2cc(C#N)ccc2N(Cc2cncn2C)C1)S(=O)(=O)c1cn(C)cn1 (stereo unspecified)
6.36 | Cn1cncc1CN1CC(N(Cc2ccc3ccccc3c2Br)S(=O)(=O)c2ccccn2)Cc2cc(C#N)ccc21 (stereo unspecified)
8.52 | Cc1onc(-c2ccccc2)c1CN(C1Cc2cc(C#N)ccc2N(Cc2cncn2C)C1)S(=O)(=O)c1ccccn1 (stereo unspecified)
9.1 | C=C(Br)CN(C1Cc2cc(C#N)ccc2N(Cc2cncn2C)C1)S(=O)(=O)c1cn(C)cn1 (stereo unspecified)
8.22 | Cn1cncc1CN1CC(N(CC(=O)NC(C)(C)C)S(=O)(=O)c2cccnc2)Cc2cc(C#N)ccc21 (stereo unspecified)
8.5 | Cn1cnc(S(=O)(=O)N(CC2CCN(C(=O)OC(C)(C)C)CC2)C2Cc3cc(C#N)ccc3N(Cc3cncn3C)C2)c1 (stereo unspecified)
6 | Cn1cnc(S(=O)(=O)N(Cc2ccc3ccccc3c2Br)C2Cc3cc(C#N)ccc3N(Cc3cncn3C)C2)c1 (stereo unspecified)
8 | Cn1cncc1CN1CC(N(Cc2cc3nsnc3cc2Cl)S(=O)(=O)c2ccccn2)Cc2cc(C#N)ccc21 (stereo unspecified)
8.42 | Cn1cncc1CN1CC(N(Cc2ccccn2)S(=O)(=O)c2ccccn2)Cc2cc(C#N)ccc21 (stereo unspecified)
8.75 | Cn1cncc1CN1CC(N(CC(=O)NC(C)(C)C)S(=O)(=O)c2ccccn2)Cc2cc(C#N)ccc21 (stereo unspecified)
8.3 | Cn1cncc1CN1CC(N(CC(=O)NC(C)(C)C)S(=O)(=O)c2nccn2C)Cc2cc(C#N)ccc21 (stereo unspecified)
6.8 | Cn1cncc1CN1CC(N(CC(=O)NC(C)(C)C)S(=O)(=O)c2ccncc2)Cc2cc(C#N)ccc21 (stereo unspecified)
8.92 | Cn1cnc(S(=O)(=O)N(Cc2ccccc2)C2Cc3cc(C#N)ccc3N(Cc3cncn3C)C2)c1 (stereo unspecified)
8.12 | Cn1cncc1CN1CC(N(CC(=O)NC(C)(C)C)S(=O)(=O)c2ccc(F)cc2)Cc2cc(C#N)ccc21 (stereo unspecified)
